Measurements: PubChem BioAssay AID493133 (Sanford-Burnham Center for Chemical Genomics, 2011)
The source made the active and inactive calls. No rule for the calls is given here.

These compounds were tested against Alkaline phosphatase, tissue-nonspecific isozyme (Homo sapiens) (UniProt P05186) (assay: TNAP enzyme activity modulation, counter to mouse IAP activators, SAR follow-up, selectivity assay for mouse IAP activator project, biochemical (AID 493133)). Details: purified human TNAP enzyme, phosphatase activity counter-screen.
Alkaline phosphatase, tissue-nonspecific isozyme (Homo sapiens), sequence (P05186 whole entry, looked up): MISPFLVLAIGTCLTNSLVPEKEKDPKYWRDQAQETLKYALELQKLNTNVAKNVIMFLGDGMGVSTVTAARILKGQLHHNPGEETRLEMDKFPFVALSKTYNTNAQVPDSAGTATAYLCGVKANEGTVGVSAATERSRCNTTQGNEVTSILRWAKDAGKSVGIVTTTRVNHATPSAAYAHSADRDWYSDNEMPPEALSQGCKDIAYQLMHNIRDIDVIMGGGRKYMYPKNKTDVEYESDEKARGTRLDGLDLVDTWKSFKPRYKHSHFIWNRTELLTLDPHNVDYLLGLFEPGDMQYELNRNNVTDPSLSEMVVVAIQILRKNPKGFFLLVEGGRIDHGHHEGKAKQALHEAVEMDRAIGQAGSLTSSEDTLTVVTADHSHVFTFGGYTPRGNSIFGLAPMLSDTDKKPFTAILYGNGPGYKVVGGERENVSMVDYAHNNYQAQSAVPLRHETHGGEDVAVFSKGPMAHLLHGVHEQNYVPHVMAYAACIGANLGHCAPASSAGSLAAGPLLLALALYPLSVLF
With `CC(C(=O)Nc1ccc(C(=O)O)c(O)c1)N1C(=O)/C(=C\c2ccco2)SC1=S` (centres undefined) the EC50 was > 100 µM (inactive). For `COc1ccccc1CNC(=O)CCNS(=O)(=O)c1ccc2[nH]c(=O)oc2c1`, the EC50 was > 100 µM (inactive). With `O=C(CN1C(=O)/C(=C/c2ccco2)SC1=S)N[C@@H]1CSC[C@@H]1O` the EC50 was > 100 µM (inactive). With `COc1ccc(N2CCN(C(=O)CN3C(=O)/C(=C\c4ccco4)SC3=S)CC2)cc1` the EC50 was > 100 µM (inactive). For `O=C(O)CC(C(=O)O)N1C(=O)/C(=C/c2ccc(-c3nc4ccccc4s3)o2)SC1=S` (centres undefined), the EC50 was > 100 µM (inactive). `NS(=O)(=O)c1ccc(-c2ccc(/C=C3\SC(=S)N(C4CCS(=O)(=O)C4)C3=O)o2)cc1` (centres undefined) was tested, and the EC50 was > 100 µM (inactive). In the case of `N#Cc1c(SCC(=O)Nc2ccc(C(F)(F)F)cc2)sc2c(O)cc(=O)[nH]c12`, the EC50 is reported as > 100 µM (inactive). For `O=C(N/N=C/c1ccc(F)cc1)c1cc(O)c(O)c(O)c1`, the EC50 was > 100 µM (inactive). For `COc1cc(C(=O)NNC(=O)c2n[nH]c3ccccc23)cc(OC)c1OC`, the EC50 was 75 µM. For `CCN(CC)C(=O)CSc1sc2c(O)cc(=O)[nH]c2c1C#N`, the EC50 was > 100 µM (inactive). `COc1ccc(CNC(=O)CSc2sc3c(O)cc(=O)[nH]c3c2C#N)cc1OC` was tested, and the EC50 was > 100 µM (inactive). For `COc1ccc(OC)c(NC(=O)CCNS(=O)(=O)c2ccc3[nH]c(=O)oc3c2)c1`, the EC50 was > 100 µM (inactive). For `CC(C(=O)Nc1ccc(C(=O)O)cc1)N1C(=O)/C(=C\c2ccco2)SC1=S` (centres undefined), the EC50 was > 100 µM (inactive). With `CCOc1ccccc1CNC(=O)CCNS(=O)(=O)c1ccc2[nH]c(=O)oc2c1` the EC50 was > 100 µM (inactive). In the case of `CCOc1cccc(NC(=O)CSc2sc3c(O)cc(=O)[nH]c3c2C#N)c1`, the EC50 is reported as > 100 µM (inactive). With `O=C(c1ccco1)N1CCN(S(=O)(=O)c2ccc3[nH]c(=O)oc3c2)CC1` the EC50 was > 100 µM (inactive). In the case of `CC(C)C(C(=O)NC1CCS(=O)(=O)C1)N1C(=O)/C(=C\c2ccco2)SC1=S` (centres undefined), the EC50 is reported as > 100 µM (inactive). In the case of `CCN(C(=O)C(C)N1C(=O)/C(=C/c2ccco2)SC1=S)C1CCS(=O)(=O)C1` (centres undefined), the EC50 is reported as > 100 µM (inactive). For `COC(=O)NNC(=O)c1cc(OC)c(OC)c(OC)c1`, the EC50 was > 100 µM (inactive). With `Cc1ccc(NC(=O)CCNS(=O)(=O)c2ccc3[nH]c(=O)oc3c2)cc1N(C)C` the EC50 was > 100 µM (inactive). For `COc1ccc(OC)c(NC(=O)CSc2sc3c(O)cc(=O)[nH]c3c2C#N)c1`, the EC50 was > 100 µM (inactive). `COc1cc(C(=O)NNC(=S)NC(=O)c2ccccc2C)cc(OC)c1OC` gave an EC50 of 40.5 µM. In the case of `CCc1nnc(NC(=O)CSc2sc3c(O)cc(=O)[nH]c3c2C#N)s1`, the EC50 is reported as > 100 µM (inactive). For `CCCSc1nnc(NC(=O)CSc2sc3c(O)cc(=O)[nH]c3c2C#N)s1`, the EC50 was > 100 µM (inactive). In the case of `CC(C(=O)Nc1cccc(C(=O)O)c1)N1C(=O)/C(=C\c2ccco2)SC1=S` (centres undefined), the EC50 is reported as > 100 µM (inactive). Work on `COc1cc(C(=O)NNc2nc3cc4c(cc3s2)OCO4)cc(OC)c1OC` yielded an EC50 of 18.4 µM. In the case of `Cc1cc(NC(=O)CSc2sc3c(O)cc(=O)[nH]c3c2C#N)ccc1Br`, the EC50 is reported as > 100 µM (inactive). For `COc1ccc(NC(=O)CSc2sc3c(O)cc(=O)[nH]c3c2C#N)c(OC)c1`, the EC50 was > 100 µM (inactive). For `O=C(CCNS(=O)(=O)c1ccc2[nH]c(=O)oc2c1)Nc1ccccc1`, the EC50 was > 100 µM (inactive). With `O=C(N/N=C/c1ccsc1)c1cc(O)c(O)c(O)c1` the EC50 was > 100 µM (inactive). With `O=C(C1CCN(S(=O)(=O)c2ccc3[nH]c(=O)oc3c2)CC1)N1CC=C(c2ccccc2)CC1` the EC50 was > 100 µM (inactive). In the case of `CCN(C(=O)CN1C(=O)/C(=C\c2ccco2)SC1=S)C1CCS(=O)(=O)C1` (centres undefined), the EC50 is reported as > 100 µM (inactive). For `CC(C)c1ccc(NC(=O)CCNS(=O)(=O)c2ccc3[nH]c(=O)oc3c2)cc1`, the EC50 was > 100 µM (inactive). In the case of `Cc1ccc(/C=C2\SC(=S)N(C3CCS(=O)(=O)C3)C2=O)o1` (centres undefined), the EC50 is reported as > 100 µM (inactive). In the case of `CC(C(=O)NCCc1ccc(O)c(O)c1)N1C(=O)/C(=C\c2ccco2)SC1=S` (centres undefined), the EC50 is reported as > 100 µM (inactive). `O=C(CN1C(=O)/C(=C\c2ccco2)SC1=S)Nc1ccc(O)cc1C(=O)O` was tested, and the EC50 was > 100 µM (inactive). For `COc1cc([N+](=O)[O-])ccc1NC(=S)NCCC(c1ccccc1)c1ccccc1`, the EC50 was > 100 µM (inactive). In the case of `CC(C)N1CCC(=NNC(=O)c2cc(O)c(O)c(O)c2)CC1`, the EC50 is reported as > 100 µM (inactive). `COc1cccc(/C=N/NC(=O)c2cc(O)c(O)c(O)c2)c1` was tested, and the EC50 was > 100 µM (inactive). With `O=C(CN1C(=O)/C(=C/c2ccco2)SC1=S)Nc1cccc(C(=O)O)c1` the EC50 was > 100 µM (inactive). In the case of `COc1ccccc1NC(=O)CCNS(=O)(=O)c1ccc2[nH]c(=O)oc2c1`, the EC50 is reported as > 100 µM (inactive). `CCOC(=O)N1CCC(NC(=O)CSc2sc3c(O)cc(=O)[nH]c3c2C#N)CC1` was tested, and the EC50 was > 100 µM (inactive). With `O=C(CCCN1C(=O)/C(=C/c2ccco2)SC1=S)Nc1ccccc1` the EC50 was > 100 µM (inactive). With `CCOC(=O)N1CCN(S(=O)(=O)c2ccc3[nH]c(=O)oc3c2)CC1` the EC50 was > 100 µM (inactive). With `C/C(=N\NC(=O)c1cc(O)c(O)c(O)c1)c1ccncc1` the EC50 was > 100 µM (inactive). With `CCOc1ccc2nc(NC(=O)CN(C)S(=O)(=O)c3ccc4[nH]c(=O)oc4c3)sc2c1` the EC50 was > 100 µM (inactive). `N#Cc1c(SCC(=O)Nc2nc3ccc(Br)cc3s2)sc2c(O)cc(=O)[nH]c12` was tested, and the EC50 was > 100 µM (inactive). With `O=C(CCNS(=O)(=O)c1ccc2[nH]c(=O)oc2c1)Nc1cccc(-c2ccno2)c1` the EC50 was > 100 µM (inactive). For `Cc1csc(NC(=O)CSc2sc3c(O)cc(=O)[nH]c3c2C#N)n1`, the EC50 was > 100 µM (inactive).
